Measurements: patent US20130150346A1, “Use of FAAH Inhibitors for Treating Parkinson's Disease and Restless Legs Syndrome” (Ironwood Pharmaceutical, Inc., priority 2010, published 2013)

Experiments:
MPTP-lesioned marmosets [1] = test: Motor activity (passive infra-red sensors: total activity, high activity counts and time) in MPTP-lesioned marmosets; format: in vivo, common marmosets (Callithrix jacchus)
Protocol: (§1) Six common marmosets (Callithrix jacchus; female; weight, 350-500 g (Harlan, Madison, Wis., USA)) were kept under conditions of controlled temperature (25±2° C.) and a 12-hour light/dark cycle (lights on 6:30 a.m.). Animals were group housed and had access to food, fresh-fruit supplements and water ad libitum and their home cage environment was enriched with primate toys, perches and auditory stimuli. Prior to start of studies, animals were acclimatized to handling, blood collection and administration of treatments (oral syringe feeding and subcutaneous injection) as well as transfer to observation cages for assessment of behavior. A parkinsonian syndrome was induced by once-daily subcutaneous administration of MPTP hydrochloride (Sigma, Canada; 2 mg/kg base concentration in 0.9% saline) for 5 consecutive days. Following this, animals were allowed to recover for 12 weeks to allow parkinsonian symptoms to develop and stabilize. […] Treatment-related complications including dyskinesia and psychosis-like behaviors were evoked by twice-daily treatment with L-DOPA p.o. (as Prolopa®, Roche Canada, Ontario, equivalent to 15 mg/kg L-DOPA and 3.5 mg/kg benserazide) for a minimum of 30 days. […] Disord. 21:839-846; Visanji et al. (2008) Mov. Disord. 23:1922-1925; Visanji et al (2009) Neurobiol Dis. 35: 184-192]. After this time, the animals were used in several studies to evaluate potential anti-parkinsonian and anti-dyskinetic agents. A minimum period of two weeks was allowed between completing any prior study and commencing this study, a period in excess of ten half-lives since administration of any previously employed experimental drug. Throughout the course of the study, on days not requiring plasma sampling or behavioral observations, animals were treated once daily with oral L-DOPA therapy, given at 10:00 a.m. to maintain stable levels of complications. Marmosets treated with MPTP as described in this example are referred to as MPTP-lesioned marmosets.
(§2) To assess the effect of treatment on plasma FAAH substrate level, total activity, high activity time and count, data were analyzed using a parametric repeated-measures (RM) 1-way analysis of variance (ANOVA) followed by a Student Newman-Keuls Multiple Comparison post hoc test. To assess the effect of treatment on plasma L-DOPA level a paired, two-tailed t-test was used. All FAAH (AEA, OEA, PEA) subbstrate and L-DOPA plasma level data and activity data are presented as the group mean and SEM For measures of parkinsonian disability, dyskinesia and psychosis, data were analyzed via Friedman's test with Dunn's Multiple Comparison post hoc test. […] In all cases, p<0.05 was taken to represent a significant difference.
(§3) MPTP hydrochloride (Sigma, Canada) was dissolved in 0.9% NaCl sterile solution to a concentration of 0.2 mg/ml (freebase) and administered at 1 ml/kg. Maintenance L-DOPA, administered as Prolopa® capsules (Roche, Mississauga, ON, Canada) containing 50 mg L-DOPA and 12.5 mg benserazide (freebase) was dissolved in Gatorade sports beverage (The Gatorade Company, Chicago, Ill.) prior to oral administration by syringe at a volume of 10 ml/kg. On days of behavioral assessment, L-DOPA (20 mg/kg, freebase) was prepared from the methyl ester form (Sigma, Canada) in combination with benserazide hydrochloride (5 mg/kg, freebase, Sigma, Canada) dissolved in 0.9% sterile saline containing 0.1% ascorbate (Sigma, Canada) and 0.05% absolute ethanol. URB597 (Cayman Chemical, Ann Arbor, Mich.) was formulated in a vehicle containing 50% corn oil (Professional Compounding Centers of America (PCCA), Houston, Tex.) and 50% nutritional drink Ensure™ (Abbott Nutrition, Chicago, Ill.) to make the suspension palatable for marmoset oral dosing. Requisite amounts of URB597 were weighed into sterile 50 ml polypropylene tubes (for the 3, 10, 30 and 60 mg/kg doses, 12, 40, 120 and 240 mg were weighed respectively). Then, 10 ml Corn oil was added and mixed until homogenous.

MPTP-lesioned marmosets [2] = test: Rating of parkinsonian disability, dyskinesia and psychosis in MPTP-lesioned marmosets; format: in vivo, common marmosets (Callithrix jacchus); conditions: L-DOPA 20 mg/kg s.c. alone, summed 2-4 h
Protocol: as §1, §2, §3

MPTP-lesioned macaques = test: Motor activity (total activity, high activity time and counts) in MPTP-lesioned macaques treated with URB597 and L-DOPA; format: in vivo, cynomolgus monkeys (Macaca fascicularis)
[3] = L-DOPA 20 mg/kg s.c. alone, 2-4 h, mean±SEM, n=6
[4] = L-DOPA 20 mg/kg s.c. alone, 2-4 h, p<0.001
[5] = L-DOPA 20 mg/kg s.c. alone, 2-4 h, p<0.05

## N[C@@H](Cc1ccc(O)c(O)c1)C(=O)O [L-DOPA, 3,4-dihydroxyphenylalanine]
MPTP-lesioned marmosets [1]; L-DOPA 20 mg/kg s.c. alone (vehicle p.o.), peak dose period 2-4 h, mean±SEM, n=6
  total activity counts: 2782±682 counts
MPTP-lesioned marmosets [1]; [3]
  high activity counts: 2170±778 counts
  high activity time: 53.3 ± 15.2 min
MPTP-lesioned marmosets [1]; [4]
  increase in high activity time compared to normal, non-MPTP-lesioned animals: 167%
  increase in total activity compared to vehicle (s.c.)-treated, MPTP-lesioned animals: 379%
MPTP-lesioned marmosets [1]; [5]
  increase in high activity counts compared to normal, non-MPTP-lesioned animals: 120%
  increase in total activity compared to non-treated, non-MPTP-lesioned (normal) animals: 77%
MPTP-lesioned marmosets [1]; L-DOPA 20 mg/kg s.c. alone, 6 h time course, 30 min intervals
  period following drug administration in which total activity was significantly increased compared to vehicle (s.c.)-treated animals: 3.5 h
MPTP-lesioned marmosets [2]; IQR 0-0 as printed, n=6
  psychosis score (median): 0
MPTP-lesioned marmosets [2]; IQR 10-29, n=6
  dyskinesia score (median): 20
MPTP-lesioned marmosets [2]; maximum 432, IQR 57-111, n=6
  parkinsonian disability score (median): 80
MPTP-lesioned macaques; L-DOPA p.o. (30 to 45 mg/kg), 1 to 3.5 hrs after administration
  total activity counts, high activity time and counts compared to normal, unlesioned macaques: higher
MPTP-lesioned macaques; L-DOPA p.o. alone, between 2 and 3 h after L-DOPA
  total activity counts, high activity time and high activity counts compared to normal macaques: significantly higher
